Data reported in PMC9841532, “Exploring the Effect of Halogenation in a Series of Potent and Selective A2B Adenosine Receptor Antagonists” (Journal of Medicinal Chemistry, 2022).
Where two headings read alike, the source gives them in different places.

Experiments:
hA1AR = biological target: T1, hA1AR (Homo sapiens, UniProt P30542); assay: Radioligand binding competition, [3H]DPCPX, membranes from CHO-A1 cells; conditions: 1 μM, [3H]DPCPX, human CHO cells, n = 2
T1 sequence (P30542 1-326): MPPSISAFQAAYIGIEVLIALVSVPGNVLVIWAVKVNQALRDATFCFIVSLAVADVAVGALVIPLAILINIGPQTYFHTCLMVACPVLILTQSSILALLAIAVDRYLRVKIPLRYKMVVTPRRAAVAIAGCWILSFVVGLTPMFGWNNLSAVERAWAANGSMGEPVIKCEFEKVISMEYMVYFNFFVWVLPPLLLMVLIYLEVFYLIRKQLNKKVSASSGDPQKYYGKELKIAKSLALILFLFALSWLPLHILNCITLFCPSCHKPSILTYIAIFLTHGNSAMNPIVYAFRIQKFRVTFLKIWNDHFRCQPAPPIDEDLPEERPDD
Protocol: (§1) All ligands reported in Tables 1–5 were obtained and tested as racemic mixtures. The whole set was evaluated in silico with a combination of a Rdkit[37] PAINS filter and Instant JChem from Chemaxon (https://www.chemaxon.com), to rule out the possibility that these ligands can be promiscuous pan-assay interference compounds (PAINS) and to assess their bioavailability, respectively. […] The stereoisomers of selected compounds were obtained by chiral resolution and tested at the four human AR subtypes in their enantiopure forms (Table 6).
(§2) A brief description is given below. […] Non-specific binding was determined in the presence of 10 μM R-PIA. The reaction mixture was incubated at 25 °C for 60 min. […] The reaction mixture was incubated at 25 °C for 30 min. […] The reaction mixture was incubated at 25 °C for 30 min. […] Non-specific binding was determined in the presence of 100 μM R-PIA. […] After the incubation time, membranes were washed and filtered and radioactivity was detected in a MicroBeta TriLux reader (PerkinElmer).

hA3AR = biological target: T2, hA3AR (Homo sapiens, UniProt P0DMS8); assay: Radioligand binding competition, [3H]NECA, membranes from HeLa-A3 cells; conditions: for % at 1 μM hA3 (percentage displacement of specific binding): [3H]NECA, human HeLa cells, n = 2
T2 construct: expressed in transfected cells; host or cells: HeLa (HeLa-A3) cell membranes
T2 sequence (P0DMS8 1-318): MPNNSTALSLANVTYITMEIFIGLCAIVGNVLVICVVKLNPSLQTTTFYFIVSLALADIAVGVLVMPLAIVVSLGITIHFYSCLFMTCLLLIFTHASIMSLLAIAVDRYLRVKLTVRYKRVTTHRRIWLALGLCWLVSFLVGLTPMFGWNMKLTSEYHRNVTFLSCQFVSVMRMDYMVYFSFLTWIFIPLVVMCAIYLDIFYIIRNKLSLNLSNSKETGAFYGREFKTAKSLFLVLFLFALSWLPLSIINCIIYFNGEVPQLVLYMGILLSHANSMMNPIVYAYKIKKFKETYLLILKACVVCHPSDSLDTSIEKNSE
Protocol: as §1, §2

hA2AAR = biological target: T3, hA2AAR (Homo sapiens, UniProt P29274); assay: Radioligand binding competition, [3H]ZM241385, membranes from HeLa-A2A cells; conditions: 1 μM, [3H]ZM241385, human HeLa cells, n = 2
T3 construct: expressed in transfected cells; host or cells: HeLa (HeLa-A2A) cell membranes
T3 sequence (P29274 whole entry): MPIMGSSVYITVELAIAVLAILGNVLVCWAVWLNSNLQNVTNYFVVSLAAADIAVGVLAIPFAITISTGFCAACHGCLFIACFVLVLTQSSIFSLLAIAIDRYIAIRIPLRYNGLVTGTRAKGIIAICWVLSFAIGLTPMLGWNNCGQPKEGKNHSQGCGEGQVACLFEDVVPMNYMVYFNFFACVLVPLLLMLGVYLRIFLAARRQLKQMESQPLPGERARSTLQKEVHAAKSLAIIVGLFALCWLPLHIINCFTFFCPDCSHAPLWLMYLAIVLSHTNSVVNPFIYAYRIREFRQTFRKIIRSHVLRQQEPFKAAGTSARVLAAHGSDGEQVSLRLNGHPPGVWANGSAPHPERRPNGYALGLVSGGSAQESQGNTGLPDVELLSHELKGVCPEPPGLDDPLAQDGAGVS
Protocol: as §1, §2

hA2BAR = biological target: T4, hA2BAR (Homo sapiens, UniProt P29275); assay: Radioligand binding competition, [3H]DPCPX, membranes from HEK-293-A2B cells; parameters: Exp. dG: unit not given here; conditions: for % at 1 μM hA2B (percentage displacement of specific binding): [3H]DPCPX, human HEK-293 cells, n = 2; for Ki: read-out: Ki hA2B; for Exp. dG: experimental binding free energy, Supplementary Table S3, unit not given (errors in kcal/mol)
T4 construct: host or cells: HEK-293 (HEK-293-A2B) cell membranes
T4 sequence (P29275 1-332): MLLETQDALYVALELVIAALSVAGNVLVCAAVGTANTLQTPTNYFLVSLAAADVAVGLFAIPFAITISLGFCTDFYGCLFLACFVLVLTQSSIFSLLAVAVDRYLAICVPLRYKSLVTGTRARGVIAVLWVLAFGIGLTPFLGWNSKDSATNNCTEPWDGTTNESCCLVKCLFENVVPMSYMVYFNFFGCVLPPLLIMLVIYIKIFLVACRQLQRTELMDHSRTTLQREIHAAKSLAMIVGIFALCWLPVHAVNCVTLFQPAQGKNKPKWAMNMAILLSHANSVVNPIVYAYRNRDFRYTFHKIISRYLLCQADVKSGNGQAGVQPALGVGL
Protocol: as §1, §2

[1] = displacement of specific [3H]DPCPX binding in human HEK-293 cells, n = 3

SMILES	% at 1 μM hA1 (percentage displacement of specific binding) (hA1AR)	% at 1 μM hA3 (percentage displacement of specific binding) (hA3AR)	% at 1 μM hA2A (percentage displacement of specific binding) (hA2AAR)	% at 1 μM hA2B (percentage displacement of specific binding) (hA2BAR)	Ki (hA2BAR; [1])	Exp. dG (hA2BAR)	Ki (hA2BAR)	Ki (hA3AR; displacement of specific [3H]NECA binding in human HeLa cells, n = 3, read-out: Ki hA3)	Ki hA2B (hA2BAR; [1])
CCOC(=O)C1=C(C)Nc2nc3ccc(Br)cc3n2C1c1ccsc1 (stereo not drawn) [15w]	4%	3%	3%	43%	–	–	–	–	–
CC1=C(C(=O)OC(C)C)C(c2ccsc2)n2c(nc3ccc(Cl)cc32)N1 (stereo not drawn) [15p]	7%	3%	9%	48%	–	–	–	–	–
CC1=C(C(=O)OC(C)C)C(c2ccco2)n2c(nc3ccc(F)cc32)N1 (stereo not drawn) [15b]	32%	5%	3%	–	12.2 ± 1.2 nM	-10.79	–	–	–
CCOC(=O)C1=C(C)Nc2nc3cc(Cl)c(Cl)cc3n2C1c1ccco1 (stereo not drawn) [14i]	2%	1%	5%	9%	–	–	–	–	–
CCOC(=O)C1=C(C)Nc2nc3cc(F)ccc3n2C1c1ccco1 (stereo not drawn) [16a]	10%	2%	29%	–	6.6 ± 1 nM	-11.15	< 10 nM	–	–
CC1=C(C(=O)OC(C)C)C(c2cocn2)n2c(nc3ccccc32)N1 (stereo not drawn) [X, reference compound]	–	–	–	–	–	-10.04	–	–	–
CCOC(=O)C1=C(C)Nc2nc3cc(F)ccc3n2C1c1cocn1 (stereo not drawn) [18a]	25%	16%	16%	–	14.7 ± 1.1 nM	-10.68	–	–	–
CC1=C(C(=O)OC(C)C)C(c2cccs2)n2c(nc3ccc(Br)cc32)N1 (stereo not drawn) [15v]	1%	8%	6%	11%	–	–	–	–	–
CC1=C(C(=O)OC(C)C)C(c2ccsc2)n2c(nc3cc(F)ccc32)N1 (stereo not drawn) [16h]	2%	5%	1%	–	75.5 ± 3.2 nM	-9.71	–	–	–
CC1=C(C(=O)OC(C)C)[C@@H](c2ccco2)n2c(nc3cc(Cl)ccc32)N1 [(S)-16j]	48%	6%	19%	–	2.04 ± 0.2 nM	–	–	–	–
CCOC(=O)C1=C(C)Nc2nc3cc(Br)ccc3n2C1c1cccs1 (stereo not drawn) [16u]	6%	6%	3%	55%	–	–	–	–	–
CCOC(=O)C1=C(C)Nc2nc3ccc(Br)cc3n2C1c1cccs1 (stereo not drawn) [15u]	1%	4%	5%	1%	–	–	–	–	–
CC1=C(C(=O)OC(C)C)C(c2cccs2)n2c(nc3ccc(F)cc32)N1 (stereo not drawn) [15f]	11%	6%	2%	23%	–	–	–	–	–
CC1=C(C(=O)OC(C)C)C(c2cccs2)n2c(nc3cc(F)c(F)cc32)N1 (stereo not drawn) [14f]	1%	10%	1%	1%	–	–	–	–	–
CCOC(=O)C1=C(C)Nc2nc3cc(F)ccc3n2C1c1cccs1 (stereo not drawn) [16e]	1%	3%	3%	–	724 ± 8 nM	–	–	–	–
CCOC(=O)C1=C(C)Nc2nc3cc(F)c(F)cc3n2C1c1cccs1 (stereo not drawn) [14e]	2%	5%	3%	25%	–	–	–	–	–
CC1=C(C(=O)OC(C)C)C(c2ccsc2)n2c(nc3ccc(F)cc32)N1 (stereo not drawn) [15h]	1%	1%	1%	–	764 ± 11 nM	-8.34	–	–	–
CCOC(=O)C1=C(C)Nc2nc3cc(F)c(F)cc3n2C1c1ccsc1 (stereo not drawn) [14g]	1%	5%	1%	–	519 ± 7 nM	–	–	–	–
CC1=C(C(=O)OC(C)C)C(c2ccsc2)n2c(nc3cc(Cl)ccc32)N1 (stereo not drawn) [16p]	7%	4%	7%	–	165 ± 9 nM	–	–	–	–
Nc1nc(NCCc2ccc(O)cc2)nc2nc(-c3ccco3)nn12 [ZM241385, 4-(2-[7-amino-2-(2-furyl)[1,2,4]triazolo[2,3-a][1,3,5]triazin-5-ylamino]ethyl)phenol, reference compound]	–	–	–	–	–	–	–	863 ± 4 nM	–
CCOC(=O)C1=C(C)Nc2nc3cc(Br)ccc3n2[C@@H]1c1ccoc1 [(R)-16s]	10%	14%	–	–	1.17 ± 0.1 nM	–	–	–	–
CC1=C(C(=O)OC(C)C)[C@@H](c2ccco2)n2c(nc3cc(Br)ccc32)N1 [(S)-16r]	32%	6%	–	–	2.97 ± 0.4 nM	–	–	–	–
CC1=C(C(=O)OC(C)C)[C@@H](c2ccco2)n2c(nc3cc(F)ccc32)N1 [(S)-16b]	26%	12%	–	–	0.94 ± 0.1 nM	–	–	–	sub-nanomolar
